Biological target: recombinant human HPK1 (Homo sapiens (Human), UniProt Q92918)
Experiment: HPK1 kinase assay (Promega ADP-Glo kinase assay)
Type: biochemical
Conditions: In vitro activity against HPK1, 5 ng HPK1, MBP substrate, ATP 25 μM, 30° C. 40 minutes
Protocol: HPK1 kinase activity was measured by Promega's ADP-Glo™ kinase assay. In this assay, 5 ng of recombinant human HPK1 (signalchem) is incubated with 5 μL of compounds (0.5% DMSO), 5 μL of MBP (0.5 μg/μl) and 5 μL of ATP (25 μM) in buffer (40 mM Tris, 7.5; 20 mM MgCl2; 0.1 mg/ml BSA; 50 μM DTT.). The assay was started by incubating the reaction mixture in a 96-well plate at 30° C. for 40 minutes. After the incubation, 25 μL ADP-Glo reagent was added and the reaction was incubated at room temperature for 40-min to stop the reaction and degrade residual ATP. The ADP product was then converted to ATP by adding 50 μL per well of detection reagent. Luminescence was detected after 30-min room temperature incubation with the Molecular device I3X plate reader. The IC50 values were calculated from a series of percent inhibition values determined at a range of inhibitor concentration using software routines as implemented in the GraphPad Prism 7 software and SigmaPlot13.0.

Chain of recombinant human HPK1 (Q92918 whole entry): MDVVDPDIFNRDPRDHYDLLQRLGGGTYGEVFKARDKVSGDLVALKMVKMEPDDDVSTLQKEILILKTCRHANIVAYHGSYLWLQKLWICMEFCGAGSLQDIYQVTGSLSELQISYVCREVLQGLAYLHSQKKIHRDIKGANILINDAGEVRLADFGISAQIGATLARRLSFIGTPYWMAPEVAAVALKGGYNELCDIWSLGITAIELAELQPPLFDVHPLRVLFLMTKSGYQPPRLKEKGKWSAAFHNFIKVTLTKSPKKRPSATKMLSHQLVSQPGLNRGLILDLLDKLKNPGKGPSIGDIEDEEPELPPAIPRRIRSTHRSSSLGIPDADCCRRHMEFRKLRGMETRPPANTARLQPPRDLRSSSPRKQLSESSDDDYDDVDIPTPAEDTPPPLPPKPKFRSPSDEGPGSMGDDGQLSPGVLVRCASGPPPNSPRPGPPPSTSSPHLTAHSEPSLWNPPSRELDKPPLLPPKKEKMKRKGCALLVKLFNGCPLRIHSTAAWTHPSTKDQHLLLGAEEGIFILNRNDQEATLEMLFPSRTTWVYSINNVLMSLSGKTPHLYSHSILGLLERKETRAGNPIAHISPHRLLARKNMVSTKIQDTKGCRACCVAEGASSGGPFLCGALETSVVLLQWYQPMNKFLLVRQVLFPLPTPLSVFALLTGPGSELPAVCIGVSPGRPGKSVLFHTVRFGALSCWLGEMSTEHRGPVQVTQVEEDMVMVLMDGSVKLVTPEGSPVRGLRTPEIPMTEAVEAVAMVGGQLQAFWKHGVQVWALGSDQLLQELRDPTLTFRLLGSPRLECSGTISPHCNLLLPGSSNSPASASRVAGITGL

SMILES | IC50 [nM]
CC(=O)Nc1cn2cc(-c3c(Cl)c(F)c(CN4CC(O)C4)c4[nH]ncc34)ncc2n1 [Example 150, N-(6-(5-chloro-6-fluoro-7-((3-hydroxyazetidin-1-yl)methyl)-1H-indazol-4-yl)imidazo[1,2-a]pyrazin-2-yl)acetamide] | 501 to 1000
CC(=O)Nc1cn2cc(-c3c(Cl)c(F)c(OC4CN(C(=O)CO)C4)c4[nH]ncc34)ncc2n1 [Example 148, N-(6-(5-chloro-6-fluoro-7-((1-(2-hydroxyacetyl)azetidin-3-yl)oxy)-1H-indazol-4-yl)imidazo[1,2-a]pyrazin-2-yl)acetamide] | 501 to 1000
CNC(=O)Nc1cn2cc(-c3c(Cl)c(F)c(NC(C)C)c4[nH]ncc34)ncc2n1 [Example 121, 1-(6-(5-chloro-6-fluoro-7-(isopropylamino)-1H-indazol-4-yl)imidazo[1,2-a]pyrazin-2-yl)-3-methylurea] | 501 to 1000
CC(C)Nc1c(F)c(CO)c(-c2cn3cc(NC(=O)[C@@H]4C[C@@H]4F)nc3cn2)c2cn[nH]c12 [Example 40, (1S,2S)-2-fluoro-N-(6-(6-fluoro-5-(hydroxymethyl)-7-(isopropylamino)-1H-indazol-4-yl)imidazo[1,2-a]pyrazin-2-yl)cyclopropane-1-carboxamide] | 101 to 500
CN(C)c1c(F)c(C(F)F)c(-c2cn3cc(NC(=O)[C@@H]4C[C@@H]4F)nc3cn2)c2cn[nH]c12 [Example 17, (1S,2S)-N-(6-(5-(difluoromethyl)-7-(dimethylamino)-6-fluoro-1H-indazol-4-yl)imidazo[1,2-a]pyrazin-2-yl)-2-fluorocyclopropane-1-carboxamide] | < 100
CC(C)Nc1c(F)c(Cl)c(-c2cn3cc(NC(=O)CCO)nc3cn2)c2cn[nH]c12 [Example 130, N-(6-(5-chloro-6-fluoro-7-(isopropylamino)-1H-indazol-4-yl)imidazo[1,2-a]pyrazin-2-yl)-3-hydroxypropanamide] | < 100
COc1c(F)c(C(C)O)c2[nH]ncc2c1-c1cn2cc(NC(=O)[C@@H]3C[C@@H]3F)nc2cn1 (stereo partly drawn) [Example 128, (1S,2S)-2-fluoro-N-(6-(6-fluoro-7-(1-hydroxyethyl)-5-methoxy-1H-indazol-4-yl)imidazo[1,2-a]pyrazin-2-yl)cyclopropane-1-carboxamide] | < 100
Cc1c(F)c(C2=CCCC2)c2[nH]ncc2c1-c1cn2cc(NC(=O)[C@@H]3C[C@@H]3F)nc2cn1 [Example 11, (1S,2S)-N-(6-(7-(cyclopent-1-en-1-yl)-6-fluoro-5-methyl-1H-indazol-4-yl)imidazo[1,2-a]pyrazin-2-yl)-2-fluorocyclopropane-1-carboxamide] | < 100
Cc1c(F)c(C(NC(=O)C2CC2)C2CC2)c2[nH]ncc2c1-c1cn2cc(NC(=O)[C@@H]3C[C@@H]3F)nc2cn1 (stereo partly drawn) [Example 67, (1S,2S)-N-(6-(7-(cyclopropanecarboxamido(cyclopropyl)methyl)-6-fluoro-5-methyl-1H-indazol-4-yl)imidazo[1,2-a]pyrazin-2-yl)-2-fluorocyclopropane-1-carboxamide] | < 100
CCC(=O)Nc1cn2cc(-c3c(OC)c(F)c(NC(C)C)c4[nH]ncc34)ncc2n1 [Example 162, N-(6-(6-fluoro-7-(isopropylamino)-5-methoxy-1H-indazol-4-yl)imidazo[1,2-a]pyrazin-2-yl)propionamide] | < 100
COC(=O)c1c(F)c(NC(C)C)c2[nH]ncc2c1-c1cn2cc(NC(=O)[C@@H]3C[C@@H]3F)nc2cn1 [Example 59, methyl 6-fluoro-4-(2-((1S,2S)-2-fluorocyclopropane-1-carboxamido)imidazo[1,2-a]pyrazin-6-yl)-7-(isopropylamino)-1H-indazole-5-carboxylate] | < 100
N#Cc1c(F)cc2[nH]ncc2c1-c1cn2cc(NC(=O)[C@@H]3C[C@@H]3F)nc2cn1 [Example 72, (1S,2S)-N-(6-(5-cyano-6-fluoro-1H-indazol-4-yl)imidazo[1,2-a]pyrazin-2-yl)-2-fluorocyclopropane-1-carboxamide] | 501 to 1000
CC(C)Nc1c(F)c(Cl)c(-c2cn3cc(NC(=O)N4CCOCC4)nc3cn2)c2cn[nH]c12 [Example 84, N-(6-(5-chloro-6-fluoro-7-(isopropylamino)-1H-indazol-4-yl)imidazo[1,2-a]pyrazin-2-yl)morpholine-4-carboxamide] | < 100

Other lines, results leading:

IC50 [nM] | SMILES
< 100 | Cc1c(F)c(C2CCOC2)c2[nH]ncc2c1-c1cn2cc(NC(=O)[C@@H]3C[C@@H]3F)nc2cn1 (stereo partly drawn) [Example 6, (1S,2S)-2-fluoro-N-(6-(6-fluoro-5-methyl-7-(tetrahydrofuran-3-yl)-1H-indazol-4-yl)imidazo[1,2-a]pyrazin-2-yl)cyclopropane-1-carboxamide]
< 100 | Cc1c(F)c(NC(C)C)c2[nH]ncc2c1-c1cn2cc(NC(=O)[C@@H]3C[C@H]3F)nc2cn1 [Example 34, (1S,2R)-2-fluoro-N-(6-(6-fluoro-7-(isopropylamino)-5-methyl-1H-indazol-4-yl)imidazo[1,2-a]pyrazin-2-yl)cyclopropane-1-carboxamide]
< 100 | CC(=O)Nc1cn2cc(-c3c(Cl)c(F)c([C@@H](C)N[S@+]([O-])C(C)(C)C)c4[nH]ncc34)ncc2n1 [Example 135, N-(6-(7-((R)-1-(((R)-tert-butylsulfinyl)amino)ethyl)-5-chloro-6-fluoro-1H-indazol-4-yl)imidazo[1,2-a]pyrazin-2-yl)acetamide]
< 100 | CC(C)Nc1c(F)c(Cl)c(-c2cn3cc(NC(=O)C4COC4)nc3cn2)c2cn[nH]c12 [Example 131, N-(6-(5-chloro-6-fluoro-7-(isopropylamino)-1H-indazol-4-yl)imidazo[1,2-a]pyrazin-2-yl)oxetane-3-carboxamide]
< 100 | CC(=O)Nc1cn2cc(-c3c(Cl)c(F)c([C@H](C)NC(=O)C(F)(F)F)c4[nH]ncc34)ncc2n1 [Example 138, (S)-N-(1-(4-(2-acetamidoimidazo[1,2-a]pyrazin-6-yl)-5-chloro-6-fluoro-1H-indazol-7-yl)ethyl)-2,2,2-trifluoroacetamide]
< 100 | Cc1c(F)c(C(C)CN2C(=O)c3ccccc3C2=O)c2[nH]ncc2c1-c1cn2cc(NC(=O)[C@@H]3C[C@@H]3F)nc2cn1 (stereo partly drawn) [Example 22, (1S,2S)-N-(6-(7-(1-(1,3-dioxoisoindolin-2-yl)propan-2-yl)-6-fluoro-5-methyl-1H-indazol-4-yl)imidazo[1,2-a]pyrazin-2-yl)-2-fluorocyclopropane-1-carboxamide]
< 100 | CC(=O)Nc1cn2cc(-c3c(C(F)F)c(F)c(NC(C)C)c4[nH]ncc34)ncc2n1 [Example 153, N-(6-(5-(difluoromethyl)-6-fluoro-7-(isopropylamino)-1H-indazol-4-yl)imidazo[1,2-a]pyrazin-2-yl)acetamide]
< 100 | CC(C)Nc1c(F)c(Cl)c(-c2cn3cc(NC(=O)C(F)(F)F)nc3cn2)c2cn[nH]c12 [Example 66, N-(6-(5-chloro-6-fluoro-7-(isopropylamino)-1H-indazol-4-yl)imidazo[1,2-a]pyrazin-2-yl)-2,2,2-trifluoroacetamide]
< 100 | CC(C)Nc1c(F)c(Cl)c(-c2cn3cc(NC(=O)C4CCOC4)nc3cn2)c2cn[nH]c12 (stereo not shown) [Example 125, N-(6-(5-chloro-6-fluoro-7-(isopropylamino)-1H-indazol-4-yl)imidazo[1,2-a]pyrazin-2-yl)tetrahydrofuran-3-carboxamide]

Reference: patent publication US20250197406A1, “INDAZOLES AS HEMATOPOIETIC PROGENITOR KINASE 1 (HPK1) INHIBITORS AND METHODS FOR USING SAME” (1ST Biotherapeutics, Inc., priority 2022, published 2025)
